Reference: patent US8952024B2, “Herbicidal pyrimidone derivatives” (E I du Pont de Nemours and Company, priority 2009, dated 2015)

Columns and labels:
Format in all cases: in vivo
[1] = test system: giant foxtail (Setaria faberii); assay: Test B pre-/postemergence plant response
Procedure, shortened: (§1)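 Visual injury, 0–100 scale (100 = complete control), rated against controls after 13 to 15 days in greenhouse. Pre-emergence: seeds in loam/sand soil, treated at planting. Post-emergence: 1- to 4-leaf plants (2 to 18 cm) in peat/vermiculite medium. Compounds formulated in non-phytotoxic solvent with surfactant.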

[2] = test system: morningglory (Ipomoea coccinea); assay: Test B pre-/postemergence plant response
Procedure, shortened: as §1

[3] = test system: johnsongrass (Sorghum halepense); assay: Test B pre-/postemergence plant response
Procedure, shortened: as §1

[4] = test system: woolly cupgrass (Eriochloa villosa); assay: Test B pre-/postemergence plant response
Procedure, shortened: as §1

[5] = test system: wheat (Triticum aestivum); assay: Test B pre-/postemergence plant response
Procedure, shortened: as §1

[6] = test system: goosegrass (Eleusine indica); assay: Test B pre-/postemergence plant response
Procedure, shortened: as §1

rice (Oryza sativa) = assay: Test B flooded paddy test; conditions: for Plant response rating, Flood, Rice: 250 g ai/ha, flooded paddy test, visual rating on 0 to 100 scale (0 no effect, 100 complete control) after 13 to 15 days; for Plant response rating, Rice: Flood (flooded paddy test), 13 to 15 days
Procedure, shortened: (§2)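 Seedlings reaching 2 leaves are flooded 3 cm deep; test material is delivered to that water, which stays at the same depth. Plants remain in a greenhouse 13–15 days and are then scored by eye versus controls from 0 to 100.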

[7] = test system: barnyardgrass (Echinochloa crus-galli); assay: Test B flooded paddy test; conditions: for Plant response rating, Flood, Barnyardgrass: 250 g ai/ha, flooded paddy test, visual rating on 0 to 100 scale (0 no effect, 100 complete control) after 13 to 15 days; for Plant response rating, Barnyardgrass: Flood (flooded paddy test), 13 to 15 days
Procedure, shortened: as §2

[8] = test system: umbrella sedge (Cyperus difformis); assay: Test B flooded paddy test; conditions: for Plant response rating, Flood, Sedge, Umbrella: 250 g ai/ha, flooded paddy test, visual rating on 0 to 100 scale (0 no effect, 100 complete control) after 13 to 15 days; for Plant response rating, Sedge, Umbrella: Flood (flooded paddy test), 13 to 15 days
Procedure, shortened: as §2

[9] = test system: ducksalad (Heteranthera limosa); assay: Test B flooded paddy test; conditions: for Plant response rating, Flood, Ducksalad: 250 g ai/ha, flooded paddy test, visual rating on 0 to 100 scale (0 no effect, 100 complete control) after 13 to 15 days; for Plant response rating, Ducksalad: Flood (flooded paddy test), 13 to 15 days
Procedure, shortened: as §2

[10] = test system: pigweed (Amaranthus retroflexus); assay: Test A pre-/postemergence plant response
Procedure, shortened: (§3)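 Approximately ten days after concurrent pre- and postemergence spraying in a greenhouse, plants were compared with untreated controls and rated visually for injury, 0 = no effect to 100 = complete control. Preemergence spray was directed onto loam/sand soil; postemergence targeted 1–2 leaf seedlings.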

[11] = test system: morningglory (Ipomoea spp.); assay: Test A pre-/postemergence plant response
Procedure, shortened: as §3

[12] = 31 g ai/ha, postemergence, scale 0 to 100, 0 is no effect, 100 is complete control
[13] = 250 g ai/ha, Preemergence, 0 to 100 scale
[14] = Postemergence, 62 g ai/ha, scale 0 (no effect) to 100 (complete control), 13 to 15 days
[15] = Postemergence, 125 g ai/ha, visual rating after 13 to 15 days, scale 0 (no effect) to 100 (complete control)
[16] = Postemergence, 250 g ai/ha, scale 0 to 100 (0 no effect, 100 complete control)
[17] = Preemergence, 31 g ai/ha, scale 0 to 100 (0 no effect, 100 complete control)
[18] = Preemergence, 62 g ai/ha, scale 0 to 100, 0 no effect, 100 complete control
[19] = Preemergence, 125 g ai/ha, scale 0 to 100, 0 no effect, 100 complete control
[20] = 31 g ai/ha, scale of 0 to 100 where 0 is no effect and 100 is complete control
[21] = 62 g ai/ha, scale of 0 to 100 where 0 is no effect and 100 is complete control
[22] = 125 g ai/ha, scale 0 to 100, 0 is no effect, 100 is complete control
[23] = Postemergence, 125 g ai/ha, visual injury, 0 to 100 scale (0 no effect, 100 complete control), approx. ten days
[24] = Postemergence, 500 g ai/ha, 0 to 100 scale, 0 = no effect, 100 = complete control, approx. ten days
[25] = Preemergence, 125 g ai/ha, 0 to 100 scale, 0 = no effect, 100 = complete control
[26] = Preemergence, 500 g ai/ha, visual injury, 0 to 100 scale (0 no effect, 100 complete control), approx. ten days

Cc1cccc(-n2c(-c3ccccc3)ncc(C(=O)C3=C(O)CCCC3=O)c2=O)c1F [Compound 58]
95: Plant response rating, Cupgrass, Woolly [4, 16] | Plant response rating, Goosegrass [6, 17]
75: Plant response rating, Foxtail, Giant [1, 12] | Plant response rating, Foxtail, Giant [1, 13] | Plant response rating, Foxtail, Giant [1, 19] | Plant response rating, Goosegrass [6, 14]
70: Plant response rating, Cupgrass, Woolly [4, 15] | Plant response rating, Goosegrass [6, 12] | Plant response rating, Pigweed [10, 25]
85: Plant response rating, Foxtail, Giant [1, 14] | Plant response rating, Johnsongrass [3, 13] | Plant response rating, Johnsongrass [3, 14] | Plant response rating, Cupgrass, Woolly [4, 13] | Plant response rating, Goosegrass [6, 15]
0: Plant response rating, Morningglory [2, 17] | Plant response rating, Morningglory [2, 18] | Plant response rating, Wheat [5, 12] | Plant response rating, Wheat [5, 14] | Plant response rating, Wheat [5, 15] | Plant response rating, Wheat [5, 16] | Plant response rating, Wheat [5, 17] | Plant response rating, Wheat [5, 18] | Plant response rating, Wheat [5, 19] | Plant response rating, Flood, Rice (rice (Oryza sativa)) | Plant response rating, Rice (rice (Oryza sativa); [20]) | Plant response rating, Rice (rice (Oryza sativa); [21]) | Plant response rating, Rice (rice (Oryza sativa); [22]) | Plant response rating, Flood, Barnyardgrass [7] | Plant response rating, Barnyardgrass [7, 20] | Plant response rating, Barnyardgrass [7, 21] | Plant response rating, Barnyardgrass [7, 22] | Plant response rating, Flood, Sedge, Umbrella [8] | Plant response rating, Sedge, Umbrella [8, 20] | Plant response rating, Sedge, Umbrella [8, 21] | Plant response rating, Sedge, Umbrella [8, 22] | Plant response rating, Flood, Ducksalad [9] | Plant response rating, Ducksalad [9, 20] | Plant response rating, Ducksalad [9, 21] | Plant response rating, Ducksalad [9, 22]
50: Plant response rating, Johnsongrass [3, 12]
10: Plant response rating, Foxtail, Giant [1, 17] | Plant response rating, Johnsongrass [3, 17] | Plant response rating, Cupgrass, Woolly [4, 17] | Plant response rating, Cupgrass, Woolly [4, 18]
55: Plant response rating, Morningglory [2, 19]
80: Plant response rating, Morningglory [2, 14] | Plant response rating, Johnsongrass [3, 19] | Morningglory plant response rating [11, 23]
98: Plant response rating, Foxtail, Giant [1, 16] | Plant response rating, Johnsongrass [3, 15] | Plant response rating, Goosegrass [6, 18]
20: Plant response rating, Foxtail, Giant [1, 18] | Plant response rating, Johnsongrass [3, 18] | Plant response rating, Cupgrass, Woolly [4, 19]
100: Plant response rating, Johnsongrass [3, 16] | Plant response rating, Goosegrass [6, 13] | Plant response rating, Goosegrass [6, 19] | Pigweed plant response rating [10, 23] | Plant response rating, Pigweed [10, 24] | Plant response rating, Pigweed [10, 26] | Plant response rating, Morningglory [11, 24] | Plant response rating, Morningglory [11, 26]
90: Plant response rating, Foxtail, Giant [1, 15] | Plant response rating, Morningglory [2, 15] | Plant response rating, Morningglory [2, 16] | Plant response rating, Goosegrass [6, 16]
65: Plant response rating, Morningglory [2, 12] | Plant response rating, Cupgrass, Woolly [4, 12] | Plant response rating, Cupgrass, Woolly [4, 14]

CCCCc1ncc(C(=O)C2=C(O)CCCC2=O)c(=O)n1-c1ccccc1C [Compound 62]
60: Plant response rating, Cupgrass, Woolly [4, 15]
98: Plant response rating, Goosegrass [6, 13] | Plant response rating, Goosegrass [6, 19]
55: Plant response rating, Foxtail, Giant [1, 12] | Plant response rating, Cupgrass, Woolly [4, 12] | Plant response rating, Cupgrass, Woolly [4, 14]
90: Pigweed plant response rating [10, 23] | Plant response rating, Morningglory [11, 25]
10: Plant response rating, Johnsongrass [3, 16] | Plant response rating, Cupgrass, Woolly [4, 13]
80: Plant response rating, Foxtail, Giant [1, 16] | Plant response rating, Pigweed [10, 25]
75: Plant response rating, Foxtail, Giant [1, 15] | Plant response rating, Morningglory [2, 15] | Plant response rating, Morningglory [2, 16] | Plant response rating, Goosegrass [6, 16]
30: Plant response rating, Wheat [5, 16] | Plant response rating, Flood, Ducksalad [9]
15: Plant response rating, Morningglory [2, 14] | Plant response rating, Goosegrass [6, 17]
95: Plant response rating, Goosegrass [6, 18]
0: Plant response rating, Foxtail, Giant [1, 17] | Plant response rating, Foxtail, Giant [1, 18] | Plant response rating, Morningglory [2, 17] | Plant response rating, Morningglory [2, 18] | Plant response rating, Morningglory [2, 19] | Plant response rating, Johnsongrass [3, 12] | Plant response rating, Johnsongrass [3, 14] | Plant response rating, Johnsongrass [3, 15] | Plant response rating, Johnsongrass [3, 17] | Plant response rating, Johnsongrass [3, 18] | Plant response rating, Johnsongrass [3, 19] | Plant response rating, Cupgrass, Woolly [4, 17] | Plant response rating, Cupgrass, Woolly [4, 18] | Plant response rating, Wheat [5, 12] | Plant response rating, Wheat [5, 14] | Plant response rating, Wheat [5, 17] | Plant response rating, Wheat [5, 18] | Plant response rating, Wheat [5, 19] | Plant response rating, Flood, Rice (rice (Oryza sativa)) | Plant response rating, Rice (rice (Oryza sativa); [20]) | Plant response rating, Rice (rice (Oryza sativa); [21]) | Plant response rating, Rice (rice (Oryza sativa); [22]) | Plant response rating, Flood, Barnyardgrass [7] | Plant response rating, Barnyardgrass [7, 20] | Plant response rating, Barnyardgrass [7, 21] | Plant response rating, Barnyardgrass [7, 22] | Plant response rating, Flood, Sedge, Umbrella [8] | Plant response rating, Sedge, Umbrella [8, 20] | Plant response rating, Sedge, Umbrella [8, 21] | Plant response rating, Sedge, Umbrella [8, 22] | Plant response rating, Ducksalad [9, 20] | Plant response rating, Ducksalad [9, 21] | Plant response rating, Ducksalad [9, 22]
5: Plant response rating, Cupgrass, Woolly [4, 19] | Plant response rating, Wheat [5, 15]
100: Plant response rating, Pigweed [10, 24] | Plant response rating, Pigweed [10, 26] | Morningglory plant response rating [11, 23] | Plant response rating, Morningglory [11, 24] | Plant response rating, Morningglory [11, 26]
20: Plant response rating, Foxtail, Giant [1, 13] | Plant response rating, Foxtail, Giant [1, 19]
65: Plant response rating, Foxtail, Giant [1, 14] | Plant response rating, Cupgrass, Woolly [4, 16] | Plant response rating, Goosegrass [6, 12] | Plant response rating, Goosegrass [6, 14] | Plant response rating, Goosegrass [6, 15]
